# From ChEMBL document CHEMBL4842311, “Novel Mechanistic Observations and NES-Binding Groove Features Revealed by the CRM1 Inhibitors Plumbagin and Oridonin” (J Nat Prod, 2021)
# Activity calls are given as the source filed them. The rule behind the calls is not given here.
# Key:
# [1] = biological target: Exportin-1 (Homo sapiens) (UniProt O14980); test: Inhibition of human wild type CRM1 assessed as C528 conjugation at 20 uM incubated for 2 hrs before binding by coomassie blue staining based pull-down assay
# Sequence of Exportin-1 (Homo sapiens) (O14980 whole entry, the tested form may be a part): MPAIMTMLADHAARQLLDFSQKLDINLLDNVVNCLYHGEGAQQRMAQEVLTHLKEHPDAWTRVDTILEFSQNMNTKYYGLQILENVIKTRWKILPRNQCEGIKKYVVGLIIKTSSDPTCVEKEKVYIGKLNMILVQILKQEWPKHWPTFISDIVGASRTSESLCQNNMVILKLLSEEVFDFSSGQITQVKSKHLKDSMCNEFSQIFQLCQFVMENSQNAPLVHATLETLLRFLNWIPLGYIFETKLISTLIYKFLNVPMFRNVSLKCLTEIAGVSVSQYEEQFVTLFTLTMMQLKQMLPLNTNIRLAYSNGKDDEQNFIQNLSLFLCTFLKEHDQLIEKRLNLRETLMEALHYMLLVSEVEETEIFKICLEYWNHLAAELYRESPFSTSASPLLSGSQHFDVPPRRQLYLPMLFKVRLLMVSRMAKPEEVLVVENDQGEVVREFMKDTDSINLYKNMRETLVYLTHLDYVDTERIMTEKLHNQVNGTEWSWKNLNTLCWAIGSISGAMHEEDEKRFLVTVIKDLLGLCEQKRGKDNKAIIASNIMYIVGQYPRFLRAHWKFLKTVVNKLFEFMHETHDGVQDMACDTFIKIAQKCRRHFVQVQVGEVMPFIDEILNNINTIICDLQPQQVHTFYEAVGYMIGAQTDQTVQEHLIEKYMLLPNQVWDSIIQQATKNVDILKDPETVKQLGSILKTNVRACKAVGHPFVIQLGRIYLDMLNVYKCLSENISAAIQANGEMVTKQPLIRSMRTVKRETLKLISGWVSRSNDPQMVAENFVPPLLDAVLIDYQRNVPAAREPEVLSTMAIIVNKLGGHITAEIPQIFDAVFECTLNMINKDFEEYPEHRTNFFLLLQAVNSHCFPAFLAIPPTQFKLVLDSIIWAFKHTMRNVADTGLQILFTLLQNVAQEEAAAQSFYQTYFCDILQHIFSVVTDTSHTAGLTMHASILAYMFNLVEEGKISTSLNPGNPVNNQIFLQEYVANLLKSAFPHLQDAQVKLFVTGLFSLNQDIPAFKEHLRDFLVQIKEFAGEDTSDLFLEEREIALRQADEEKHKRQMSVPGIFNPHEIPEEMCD
# [2] = test system: Exportin-1 (Homo sapiens), O14980 [C528S]; test: Inhibition of human CRM1-C528S mutant assessed as C528 conjugation at 20 uM incubated for 2 hrs before binding by coomassie blue staining based pull-down assay
# Sequence of Exportin-1 (Homo sapiens), O14980 [C528S] (O14980 whole entry C528S, the tested form may be a part): as the sequence (O14980 whole entry, the tested form may be a part) above, with C528S counted along it
# Saccharomyces cerevisiae [3] = test: Inhibition of Yeast GST-tagged/TEV cleavage site fused CRM1 C152/C539/D1034A triple mutant expressed in Escherichia coli BL21 (DE3) assessed as decrease in NES binding at 60 uM measured after 2 hrs by coomassie blue staining based pull-down assay
# [4] = biological target: Exportin-1 (Homo sapiens) (UniProt O14980); test: Inhibition of human CRM1-WT assessed as C528 conjugation at 1 uM incubated for 2 hrs before binding by coomassie blue staining based pull-down assay
# Saccharomyces cerevisiae [5] = test: Inhibition of Yeast GST-tagged/TEV cleavage site fused CRM1 C152/C539 double mutant expressed in Escherichia coli BL21 (DE3) assessed as C1022 conjugation mediated NES inhibition at 60 uM measured after 2 hrs by coomassie blue staining based pull-down assay
inhibition [1],inhibition [2],inhibition [4],inhibition (Saccharomyces cerevisiae [5]),SMILES,inhibition (Saccharomyces cerevisiae [3])
Active,Active,,,O=C(/C=C\n1cnc(-c2cc(C(F)(F)F)cc(C(F)(F)F)c2)n1)NNc1cnccn1,
Active,Active,inactive,Active,C=C1C(=O)[C@]23[C@H](O)[C@H]1CC[C@H]2[C@@]12CO[C@]3(O)[C@@H](O)[C@@H]1C(C)(C)CC[C@@H]2O,Active

SMILES,inhibition [1],inhibition [2],inhibition [4],inhibition (Saccharomyces cerevisiae [5]),inhibition (Saccharomyces cerevisiae [3])
CC1=CC(=O)c2c(O)cccc2C1=O,Active,Active,,,Active
